According to ChEMBL document CHEMBL1125803 (J Med Chem, 1991):
Numbered stars: 1 amine (or outer) side, 2 acyl side, 3 side chain; on linkers, the order of the positions; unused ones are H or OH. Square brackets hold non-standard residues; d marks the D form. Peptide text beside a SMILES is read from it. X1 = O=C([C@@H]1CCCN1CC(O)[C@H](Cc1ccccc1)N[*:1])[*:2]

How the values were obtained:
[1] = biological target: T1, Human immunodeficiency virus type 1 protease (Human immunodeficiency virus 1, UniProt Q72874); assay: (§1) Binding activity against HIV-1 Protease
[2] = biological target: T1, Human immunodeficiency virus type 1 protease; assay: as §1; remark: listed apart in the source

CC(C)(C)NC(=O)C1CC2CCCCC2CN1C[C@@H](O)[C@H](Cc1ccccc1)NC(=O)[C@H](CC(N)=O)NC(=O)OCc1ccccc1 (stereo partly drawn)
IC50 [1]: < 2.7 nM
IC50 [2]: < 2.7 nM

CC(C)(C)OC(=O)[C@@H]1CCCN1C[C@@H](O)[C@H](Cc1ccccc1)NC(=O)[C@H](CC(N)=O)NC(=O)OCc1ccccc1
IC50 [1]: 140 nM
IC50 [2]: 140 nM

CC[C@H](C)[C@H](NC(=O)[C@@H]1CCCN1C[C@H](O)[C@H](Cc1ccccc1)NC(=O)[C@H](CC(N)=O)NC(=O)OCc1ccccc1)C(=O)N[C@H](C(=O)OC)C(C)C
IC50 [1]: 13 nM
IC50 [2]: 13 nM

CC[C@H](C)[C@H](NC(=O)C1CC2CCCCC2CN1C[C@H](O)[C@H](Cc1ccccc1)NC(=O)[C@H](CC(N)=O)NC(=O)OCc1ccccc1)C(=O)N[C@H](C(=O)OC)C(C)C (stereo partly drawn)
IC50 [1]: > 100 nM
IC50 [2]: > 100 nM

CC(C)(C)NC(=O)C1CC2CCCCC2CN1C[C@H](O)[C@H](Cc1ccccc1)NC(=O)[C@H](CC(N)=O)NC(=O)OCc1ccccc1 (stereo partly drawn)
IC50 [1]: > 100 nM
IC50 [2]: > 100 nM

CC[C@H](C)[C@H](NC(=O)[C@@H]1CCCN1C[C@@H](O)[C@H](Cc1ccccc1)NC(=O)[C@H](CC(N)=O)NC(=O)OCc1ccccc1)C(=O)N[C@H](C(=O)OC)C(C)C
IC50 [1]: > 100 nM
IC50 [2]: > 100 nM

CC(C)(C)OC(=O)[C@@H]1CCCN1C[C@H](O)[C@H](Cc1ccccc1)NC(=O)[C@H](CC(N)=O)NC(=O)OCc1ccccc1
IC50 [1]: 300 nM
IC50 [2]: 300 nM

CC[C@H](C)[C@H](NC(=O)C1CC2CCCCC2CN1C[C@@H](O)[C@H](Cc1ccccc1)NC(=O)[C@H](CC(N)=O)NC(=O)OCc1ccccc1)C(=O)N[C@H](C(=O)OC)C(C)C (stereo partly drawn)
IC50 [1]: > 100 nM
IC50 [2]: > 100 nM

CC[C@H](C)[C@H](NC(=O)[C@@H]1CCCN1CC(O)[C@H](Cc1ccccc1)NC(=O)[C@H](CC(N)=O)NC(=O)[C@H](CC(C)C)NC(=O)[C@H](CO)NC(C)=O)C(=O)OC (stereo partly drawn) (Ac-SLN[X1]I-OMe)
IC50 [1]: 420 nM
IC50 [2]: 420 nM
